Reference: patent US20030108584A1, “Method for producing wax premixes” (priority 2000, published 2003)

Test: Breakdown of active substance during preparation of wax premix by the melt method
Format: physicochemical
Conditions: comparative Example C, montan wax melt at 110° C.
Method: Preparation of a wax premix by the melt method.
32 parts by weight of montan wax in sheet form are heated, in a mixer, at 110° C. to give a melt. To this melt there are added
15 parts by weight of cyclosulfamuron in the form of particles with an average diameter of 5μ with stirring at 110° C. The resulting suspension is stirred at high speed for 10 minutes at 110° C. and then treated portionwise with
26.5 parts by weight of highly-disperse silica while stirring is continued at full mixer speed. The resulting flowable powder is cooled to room temperature with stirring and with addition of
26.5 parts by weight of talc.
This gives a wax premix consisting of agglomerated particles. Approximately 10 percent by weight of the cyclosulfamuron present are broken down.

cyclosulfamuron present broken down: Approximately 10 percent by weight
SMILES: COc1cc(OC)nc(NC(=O)NS(=O)(=O)Nc2ccccc2C(=O)C2CC2)n1 [cyclosulfamuron]
